molecular target: T1, Mcl-1/Bim interaction, recombinant human Mcl-1 (171-327) (Homo sapiens, UniProt Q07820); assay: Cell free Mcl-1: Bim Affinity Assay (Mcl-1 HTRF); assay type: binding; conditions: TR-FRET, 0.1 nM Mcl-1 (171-327), 0.05 nM biotin-Bim (51-76)
T1 construct: made in house
Outline: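 TR-FRET competition assay with biotinylated human Bim peptide (residues 51-76); reaction plates incubated overnight before reading. IC50 values came from duplicate data fitted to a four-parameter sigmoidal competition curve.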

T1 sequence (Q07820 171-327): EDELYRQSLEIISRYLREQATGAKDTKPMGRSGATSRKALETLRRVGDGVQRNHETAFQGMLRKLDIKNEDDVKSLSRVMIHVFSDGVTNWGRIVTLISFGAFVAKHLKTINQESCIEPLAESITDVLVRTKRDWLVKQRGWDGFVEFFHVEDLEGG

Question: With CC[C@@H]1CC/C=C/[C@H](OCCC2OCCO2)[C@@H]2CC[C@H]2CN2C[C@@]3(CCCc4cc(Cl)ccc43)COc3ccc(cc32)C(=O)NS1(=O)=O [Example 968, (1S,3′R,6′R,7′S,8′E,12′R)-6-chloro-7′-(2-(1,3-dioxolan-2-yl)ethoxy)-12′-ethyl-3,4-dihydro-2H,15′H-spiro[naphthalene-1,22′-[20]oxa[13]thia[1,14]diazatetracyclo[14.7.2.0^3,6.0^19,24]pentacosa [8,16,18,24]tetraen]-15′-one 13′,13′-dioxide] as the compound, how does the IC50 read?
Answer: 1.9 nM

Question: Which IC50 does the source give for CC[C@@H]1CC/C=C/[C@H](OCCO)[C@@H]2CC[C@H]2CN2C[C@@]3(CCCc4cc(Cl)ccc43)COc3ccc(cc32)C(=O)NS1(=O)=O [Example 970, (1S,3′R,6′R,7′S,8′E,12′R)-6-chloro-12′-ethyl-7′-(2-hydroxyethoxy)-3,4-dihydro-2H,15′H-spiro[naphthalene-1,22′-[20]oxa[13]thia[1,14]diazatetracyclo[14.7.2.0^3,6.0^19,24]pentacosa [8,16,18,24]tetraen]-15′-one 13′,13′-dioxide] here?
Answer: 0.859 nM

Question: With CC[C@@H]1CC/C=C/[C@H](OCC(=O)OC(C)(C)C)[C@@H]2CC[C@H]2CN2C[C@@]3(CCCc4cc(Cl)ccc43)COc3ccc(cc32)C(=O)NS1(=O)=O [Example 971, tert-butyl (((1S,3′R,6′R,7′S,8′E,12′R)-6-chloro-12′-ethyl-13′,13′-dioxido-15′-oxo-3,4-dihydro-2H-spiro[naphthalene-1,22′-[20]oxa[13]thia[1,14]diazatetracyclo[14.7.2.0^3,6.0^19,24]pentacosa [8,16,18,24]tetraen]-7′-yl)oxy)acetate] as the compound, how does the IC50 read?
Answer: 8.44 nM

Question: With CC[C@@H]1CC/C=C/[C@H](OCC(C)(C)O)[C@@H]2CC[C@H]2CN2C[C@@]3(CCCc4cc(Cl)ccc43)COc3ccc(cc32)C(=O)NS1(=O)=O [Example 972, (1S,3′R,6′R,7′S,8′E,12′R)-6-chloro-12′-ethyl-7′-(2-hydroxy-2-methylpropoxy)-3,4-dihydro-2H,15′H-spiro[naphthalene-1,22′-[20]oxa[13]thia[1,14]diazatetracyclo[14.7.2.0^3,6.0^19,24]pentacosa [8,16,18,24]tetraen]-15′-one 13′,13′-dioxide] as the compound, how does the IC50 read?
Answer: 1.59 nM

Question: How did the IC50 turn out when CC[C@@H]1CC/C=C/[C@H](OCC(=O)N(C)C)[C@@H]2CC[C@H]2CN2C[C@@]3(CCCc4cc(Cl)ccc43)COc3ccc(cc32)C(=O)NS1(=O)=O [Example 973] was run?
Answer: 0.378 nM

Question: CC[C@@H]1CC/C=C/[C@H](OCC(=O)NC)[C@@H]2CC[C@H]2CN2C[C@@]3(CCCc4cc(Cl)ccc43)COc3ccc(cc32)C(=O)NS1(=O)=O [Example 974, 2-(((1S,3′R,6′R,7′S,8′E,12′R)-6-chloro-12′-ethyl-13′,13′-dioxido-15′-oxo-3,4-dihydro-2H-spiro[naphthalene-1,22′-[20]oxa[13]thia[1,14]diazatetracyclo[14.7.2.0^3,6.0^19,24]pentacosa [8,16,18,24]tetraen]-7′-yl)oxy)-N-methylacetamide] was tested. Which IC50 did it give?
Answer: 0.716 nM

Question: With CCO[C@H]1/C=C/CC[C@@H](CC)S(=O)(=O)NC(=O)c2ccc3c(c2)N(C[C@@H]2CC[C@H]21)C[C@@]1(CCCc2cc(Cl)ccc21)CO3 [Example 975, (1S,3′R,6′R,7′S,8′E,12′R)-6-chloro-7′-ethoxy-12′-ethyl-3,4-dihydro-2H,15′H-spiro[naphthalene-1,22′-[20]oxa[13]thia[1,14]diazatetracyclo[14.7.2.0^3,6.0^19,24]pentacosa [8,16,18,24]tetraen]-15′-one 13′,13′-dioxide] as the compound, how does the IC50 read?
Answer: 2.15 nM

Question: Which IC50 does the source give for CC[C@@H]1CC/C=C/[C@H](OCc2ccccn2)[C@@H]2CC[C@H]2CN2C[C@@]3(CCCc4cc(Cl)ccc43)COc3ccc(cc32)C(=O)NS1(=O)=O [Example 976, (1S,3′R,6′R,7′S,8′E,12′R)-6-chloro-12′-ethyl-7′-(2-pyridinylmethoxy)-3,4-dihydro-2H,15′H-spiro[naphthalene-1,22′-[20]oxa[13]thia[1,14]diazatetracyclo[14.7.2.0^3,6.0^19,24]pentacosa [8,16,18,24]tetraen]-15′-one 13′,13′-dioxide] here?
Answer: 10.4 nM

Question: With CC[C@@H]1CC/C=C/[C@H](OCCOC)[C@@H]2CC[C@H]2CN2C[C@@]3(CCCc4cc(Cl)ccc43)COc3ccc(cc32)C(=O)NS1(=O)=O [Example 980, (1S,3′R,6′R,7′S,8′E,12′R)-6-chloro-12′-ethyl-7′-(2-methoxyethoxy)-3,4-dihydro-2H,15′H-spiro[naphthalene-1,22′-[20]oxa[13]thia[1,14]diazatetracyclo[14.7.2.0^3,6.0^19,24]pentacosa [8,16,18,24]tetraen]-15′-one 13′,13′-dioxide] as the compound, how does the IC50 read?
Answer: 0.755 nM

Question: With CC[C@@H]1CC/C=C/[C@H](OCCS(C)(=O)=O)[C@@H]2CC[C@H]2CN2C[C@@]3(CCCc4cc(Cl)ccc43)COc3ccc(cc32)C(=O)NS1(=O)=O [Example 981, (1S,3′R,6′R,7′S,8′E,12′R)-6-chloro-12′-ethyl-7′-(2-(methylsulfonyl)ethoxy)-3,4-dihydro-2H,15′H-spiro[naphthalene-1,22′-[20]oxa[13]thia[1,14]diazatetracyclo[14.7.2.0^3,6.0^19,24]pentacosa [8,16,18,24]tetraen]-15′-one 13′,13′-dioxide] as the compound, how does the IC50 read?
Answer: 0.943 nM

Question: Which IC50 does the source give for CC[C@@H]1CC/C=C/[C@H](OCC#N)[C@@H]2CC[C@H]2CN2C[C@@]3(CCCc4cc(Cl)ccc43)COc3ccc(cc32)C(=O)NS1(=O)=O [Example 982, (((1S,3′R,6′R,7′S,8′E,12′R)-6-chloro-12′-ethyl-13′,13′-dioxido-15′-oxo-3,4-dihydro-2H-spiro[naphthalene-1,22′-[20]oxa[13]thia[1,14]diazatetracyclo[14.7.2.0^3,6.0^19,24]pentacosa [8,16,18,24]tetraen]-7′-yl)oxy)acetonitrile] here?
Answer: 3.14 nM

Question: Which IC50 does the source give for CC[C@@H]1CC/C=C/[C@H](OCC2CCOCC2)[C@@H]2CC[C@H]2CN2C[C@@]3(CCCc4cc(Cl)ccc43)COc3ccc(cc32)C(=O)NS1(=O)=O [Example 983, (1S,3′R,6′R,7′S,8′E,12′R)-6-chloro-12′-ethyl-7′-(tetrahydro-2H-pyran-4-ylmethoxy)-3,4-dihydro-2H,15′H-spiro[naphthalene-1,22′-[20]oxa[13]thia[1,14]diazatetracyclo[14.7.2.0^3,6.0^19,24]pentacosa [8,16,18,24]tetraen]-15′-one 13′,13′-dioxide] here?
Answer: 1.23 nM

Question: How did the IC50 turn out when CC[C@@H]1CC/C=C/[C@H](OCCN2CCOCC2)[C@@H]2CC[C@H]2CN2C[C@@]3(CCCc4cc(Cl)ccc43)COc3ccc(cc32)C(=O)NS1(=O)=O [Example 984, (1S,3′R,6′R,7′S,8′E,12′R)-6-chloro-12′-ethyl-7′-(2-(4-morpholinyl)ethoxy)-3,4-dihydro-2H,15′H-spiro[naphthalene-1,22′-[20]oxa[13]thia[1,14]diazatetracyclo[14.7.2.0^3,6.0^19,24]pentacosa [8,16,18,24]tetraen]-15′-one 13′,13′-dioxide] was run?
Answer: 1.09 nM

Question: With CC[C@@H]1CC/C=C/[C@H](OCC(=O)OC)[C@@H]2CC[C@H]2CN2C[C@@]3(CCCc4cc(Cl)ccc43)COc3ccc(cc32)C(=O)NS1(=O)=O [Example 991, methyl (((1S,3′R,6′R,7′S,8′E,12′R)-6-chloro-12′-ethyl-13′,13′-dioxido-15′-oxo-3,4-dihydro-2H-spiro[naphthalene-1,22′-[20]oxa[13]thia[1,14]diazatetracyclo[14.7.2.0^3,6.0^19,24]pentacosa [8,16,18,24]tetraen]-7′-yl)oxy)acetate] as the compound, how does the IC50 read?
Answer: 0.644 nM

Question: How did the IC50 turn out when CC[C@@H]1CCCC[C@H](OCC(=O)O)[C@@H]2CC[C@H]2CN2C[C@@]3(CCCc4cc(Cl)ccc43)COc3ccc(cc32)C(=O)NS1(=O)=O [Example 994, (((1S,3′R,6′R,7′S,12′R)-6-chloro-12′-ethyl-13′,13′-dioxido-15′-oxo-3,4-dihydro-2H-spiro[naphthalene-1,22′-[20]oxa[13]thia[1,14]diazatetracyclo[14.7.2.0^3,6.0^19,24]pentacosa [16,18,24]trien]-7′-yl)oxy)acetic Acid] was run?
Answer: 0.221 nM

Question: With CC[C@@H]1CC/C=C/[C@H](OCC(=O)N2CCC(F)(F)CC2)[C@@H]2CC[C@H]2CN2C[C@@]3(CCCc4cc(Cl)ccc43)COc3ccc(cc32)C(=O)NS1(=O)=O [Example 998, (1S,3′R,6′R,7′S,8′E,12′R)-6-chloro-7′-(2-(4,4-difluoro-1-piperidinyl)-2-oxoethoxy)-12′-ethyl-3,4-dihydro-2H,15′H-spiro[naphthalene-1,22′-[20]oxa[13]thia[1,14]diazatetracyclo[14.7.2.0^3,6.0^19,24]pentacosa [8,16,18,24]tetraen]-15′-one 13′,13′-dioxide] as the compound, how does the IC50 read?
Answer: 2.14 nM

Question: Which IC50 does the source give for CC[C@@H]1CC/C=C/[C@H](OCC(=O)N2CCS(=O)(=O)CC2)[C@@H]2CC[C@H]2CN2C[C@@]3(CCCc4cc(Cl)ccc43)COc3ccc(cc32)C(=O)NS1(=O)=O [Example 999, (1S,3′R,6′R,7′S,8′E,12′R)-6-chloro-7′-(2-(1,1-dioxido-4-thiomorpholinyl)-2-oxoethoxy)-12′-ethyl-3,4-dihydro-2H,15′H-spiro[naphthalene-1,22′-[20]oxa[13]thia[1,14]diazatetracyclo[14.7.2.0^3,6.0^19,24]pentacosa [8,16,18,24]tetraen]-15′-one 13′,13′-dioxide] here?
Answer: 0.373 nM

Question: CC[C@@H]1CC/C=C/[C@H](OCC(=O)Nc2ccncc2)[C@@H]2CC[C@H]2CN2C[C@@]3(CCCc4cc(Cl)ccc43)COc3ccc(cc32)C(=O)NS1(=O)=O [Example 1000, 2-(((1S,3′R,6′R,7′S,8′E,12′R)-6-chloro-12′-ethyl-13′,13′-dioxido-15′-oxo-3,4-dihydro-2H-spiro[naphthalene-1,22′-[20]oxa[13]thia[1,14]diazatetracyclo[14.7.2.0^3,6.0^19,24]pentacosa [8,16,18,24]tetraen]-7′-yl)oxy)-N-4-pyridinylacetamide] was tested. Which IC50 did it give?
Answer: 3.14 nM

Source: patent US12091425B2 (AMGEN INC., priority 2016, dated 2024)
